The values that follow come from paper PMC4586081 (Journal of neuroscience research, 2008).

The target in one assay is α3β2 nAChR (Rattus norvegicus, UniProt P04757+P12390). Briefly: two-electrode voltage clamp, Xenopus oocytes, peak current. The class given is cell-based. A general note: Two-electrode voltage clamp is typically applied to oocytes expressing channels or transporters.
Another assay has as its target α3β4 nAChR (Rattus norvegicus, UniProt P04757+P12392). Described as above. The format is cell-based.

α3β2 nAChR, sequence (P04757 26-499): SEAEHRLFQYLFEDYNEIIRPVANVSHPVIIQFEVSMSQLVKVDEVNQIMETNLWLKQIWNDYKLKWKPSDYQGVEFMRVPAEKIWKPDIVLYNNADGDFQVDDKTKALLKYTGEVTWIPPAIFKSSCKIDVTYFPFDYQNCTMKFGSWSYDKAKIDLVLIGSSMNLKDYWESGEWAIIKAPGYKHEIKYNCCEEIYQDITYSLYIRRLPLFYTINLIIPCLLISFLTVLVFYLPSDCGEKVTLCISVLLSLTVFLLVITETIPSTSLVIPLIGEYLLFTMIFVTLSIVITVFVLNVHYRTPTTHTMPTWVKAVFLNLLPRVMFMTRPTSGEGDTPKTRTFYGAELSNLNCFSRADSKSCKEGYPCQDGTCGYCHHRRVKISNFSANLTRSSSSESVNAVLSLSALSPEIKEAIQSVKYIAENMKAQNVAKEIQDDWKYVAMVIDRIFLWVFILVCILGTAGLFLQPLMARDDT
α3β2 nAChR, sequence (P12390 25-500): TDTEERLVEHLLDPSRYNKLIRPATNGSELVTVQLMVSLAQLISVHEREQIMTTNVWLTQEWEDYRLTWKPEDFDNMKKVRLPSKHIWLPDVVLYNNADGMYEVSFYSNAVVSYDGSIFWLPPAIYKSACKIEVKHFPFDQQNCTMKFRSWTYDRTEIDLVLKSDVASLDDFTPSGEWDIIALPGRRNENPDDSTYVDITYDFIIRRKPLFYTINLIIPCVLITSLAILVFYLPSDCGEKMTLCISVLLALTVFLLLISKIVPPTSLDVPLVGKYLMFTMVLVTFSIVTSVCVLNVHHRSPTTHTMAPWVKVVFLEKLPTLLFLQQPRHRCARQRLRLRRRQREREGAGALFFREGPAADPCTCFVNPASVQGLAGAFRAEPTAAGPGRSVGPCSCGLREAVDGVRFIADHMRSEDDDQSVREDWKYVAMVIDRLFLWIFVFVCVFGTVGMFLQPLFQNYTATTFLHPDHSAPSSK
α3β4 nAChR, sequence (P04757 26-499): as the sequence (P04757 26-499) above
α3β4 nAChR, sequence (P12392 21-495): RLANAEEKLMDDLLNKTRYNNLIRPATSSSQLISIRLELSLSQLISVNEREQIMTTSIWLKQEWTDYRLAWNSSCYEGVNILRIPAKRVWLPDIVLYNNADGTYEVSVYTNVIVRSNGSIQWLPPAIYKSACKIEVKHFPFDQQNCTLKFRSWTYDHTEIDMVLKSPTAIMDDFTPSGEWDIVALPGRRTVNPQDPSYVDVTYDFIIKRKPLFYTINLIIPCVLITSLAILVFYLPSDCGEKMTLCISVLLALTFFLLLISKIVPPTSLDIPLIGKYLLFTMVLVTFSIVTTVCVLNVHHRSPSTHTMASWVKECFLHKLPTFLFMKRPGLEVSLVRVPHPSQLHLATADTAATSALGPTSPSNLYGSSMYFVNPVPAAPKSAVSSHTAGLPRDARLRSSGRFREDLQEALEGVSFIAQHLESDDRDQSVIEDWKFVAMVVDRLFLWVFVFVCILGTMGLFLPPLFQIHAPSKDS

Turning to `C[N+]1(C)CCN(c2ccccc2)CC1` [DMPP], the EC50 (as a rule, the midpoint of the concentration-response curve) at α3β2 nAChR worked out at 55 µM; on α3β4 nAChR, 58 µM.
